The results in this text go back to BindingDB's records for doi:10.1016/j.bmcl.2019.02.034 (Wroclaw University of Technology, 2019).

Where a SMILES comes first, the peptide text is derived from it. The star is where a group is joined. X1 = CC(C)CC(CP(=O)(O)[C@@H](N)CCc1ccccc1)C(=O)*

The target of this assay is Leucyl-cystinyl aminopeptidase (Homo sapiens) (UniProt Q9UIQ6). The assay can be described thus: Inhibition of human IRAP using L-leucine 7-amido-4-methyl coumarin substrate by microplate fluorescence reader based assay.
Chain of Leucyl-cystinyl aminopeptidase (Homo sapiens) (Q9UIQ6 whole entry, looked up): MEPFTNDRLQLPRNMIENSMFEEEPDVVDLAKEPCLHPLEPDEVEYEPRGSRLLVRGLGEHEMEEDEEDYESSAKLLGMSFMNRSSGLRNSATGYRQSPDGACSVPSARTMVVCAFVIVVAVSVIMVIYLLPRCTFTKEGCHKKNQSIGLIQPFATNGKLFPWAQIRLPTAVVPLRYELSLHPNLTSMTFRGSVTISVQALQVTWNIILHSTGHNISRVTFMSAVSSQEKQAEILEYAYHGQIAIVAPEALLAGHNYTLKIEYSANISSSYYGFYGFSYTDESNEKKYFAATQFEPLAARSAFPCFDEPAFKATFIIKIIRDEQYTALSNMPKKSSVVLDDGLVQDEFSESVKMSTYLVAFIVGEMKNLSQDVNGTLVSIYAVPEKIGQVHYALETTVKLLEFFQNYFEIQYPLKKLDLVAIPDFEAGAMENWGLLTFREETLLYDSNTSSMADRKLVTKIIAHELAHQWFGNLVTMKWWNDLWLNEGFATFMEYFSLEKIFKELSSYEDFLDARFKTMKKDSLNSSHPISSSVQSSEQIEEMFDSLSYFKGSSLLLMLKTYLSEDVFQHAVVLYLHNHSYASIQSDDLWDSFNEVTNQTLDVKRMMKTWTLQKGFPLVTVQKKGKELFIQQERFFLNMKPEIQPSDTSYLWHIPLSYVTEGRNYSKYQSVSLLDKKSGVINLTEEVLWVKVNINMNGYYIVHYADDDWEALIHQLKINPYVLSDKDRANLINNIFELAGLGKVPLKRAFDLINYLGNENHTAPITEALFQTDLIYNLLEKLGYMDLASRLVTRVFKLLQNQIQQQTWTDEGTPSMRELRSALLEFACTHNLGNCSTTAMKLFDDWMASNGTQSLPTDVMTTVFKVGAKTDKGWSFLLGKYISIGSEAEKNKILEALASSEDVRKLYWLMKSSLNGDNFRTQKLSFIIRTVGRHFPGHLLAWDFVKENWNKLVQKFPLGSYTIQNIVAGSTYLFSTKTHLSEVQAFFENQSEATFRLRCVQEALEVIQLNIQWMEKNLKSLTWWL
For orientation: IC50 means the concentration at which inhibition is half-maximal. A higher IC50 goes with lower potency. Turning to `C#CC[C@H](CP(=O)(O)[C@@H](N)CCc1ccccc1)C(=O)N[C@@H](Cc1ccccc1)C(N)=O`, the IC50 was 2 nM.
For `NC(=O)[C@H](Cc1ccccc1)NC(=O)[C@H](CCC(c1ccccc1)c1ccccc1)CP(=O)(O)[C@@H](N)CCc1ccccc1` the value was 32 nM; for `CC(C)CC(CP(=O)(O)[C@@H](N)CCc1ccccc1)C(=O)N[C@@H](CCCCN)C(=O)N[C@@H](Cc1cnc[nH]1)C(=O)N[C@@H](Cc1cnc[nH]1)C(=O)N[C@@H](C)C(=O)N[C@@H](Cc1ccccc1)C(=O)N[C@@H](CO)C(=O)N[C@@H](Cc1ccccc1)C(=O)N[C@@H](CCCCN)C(N)=O` (stereo partly drawn) (X1-KHHAFSFK-NH2), 7.7 nM.
